One assay deals with JNK3. Kind of assay: In vitro kinase assay, purified kinase (Upstate Kinase Profiling). In kind it is biochemical. The conditions noted are these: 1 uM GW5074, ATP 10 uM; percentage of control without GW5074, mean +/- SD. From the text: (§1) (Lackey et al., 2000). […] A number of reports have implicated JNKs in the promotion of neuronal apoptosis both in vivo and in cell culture systems (Coffey et al., 2002). Although all three JNK proteins are expressed in neurons, the phosphorylation of c-jun is believed to be mediated by JNK2 or JNK3 (Bruckner et al., 2001; Bruckner and Estus, 2002; Coffey et al., 2002). […] In apoptotic neurons, JNK activation is mediated primarily by MKK7 (Eilers et al., 1998; Trotter et al., 2002).
(§2) In general, in vitro kinase assays were performed using purified kinase and synthetic substrates under standard conditions using the Kinase Profiling service of Upstate Biotechnology. Briefly, for each assay 5-10 mU of purified kinase was used. […] Kinase activity was quantified by measuring ^33P incorporation by spotting an aliquot on P30 filters, washing in 50 mM phosphoric acid and scintillation counting. The buffer composition for C-Raf, JNK1, JNK2, JNK3, MEK1, MKK6, MKK7 was 50 mM Tris pH7.5, 0.1 mM EGTA, 10 mM Mg acetate and [γ-^33P-ATP]. The peptide substrates used were as follows: For C-Raf, 0.66 mg/ml MBP; for cdks, 0.1 mg/ml histone H1; for JNKs, 3 uM ATF2; for MEK1, 1 uM MAPK2; for MKK6, 1 uM of SAPK2a and for MKK7, 2 uM JNK1α.

In a further assay the target is GSK3β (Homo sapiens, UniProt P49841). Described as above. In kind it is biochemical.
Chain of GSK3β (P49841 whole entry, species assumed): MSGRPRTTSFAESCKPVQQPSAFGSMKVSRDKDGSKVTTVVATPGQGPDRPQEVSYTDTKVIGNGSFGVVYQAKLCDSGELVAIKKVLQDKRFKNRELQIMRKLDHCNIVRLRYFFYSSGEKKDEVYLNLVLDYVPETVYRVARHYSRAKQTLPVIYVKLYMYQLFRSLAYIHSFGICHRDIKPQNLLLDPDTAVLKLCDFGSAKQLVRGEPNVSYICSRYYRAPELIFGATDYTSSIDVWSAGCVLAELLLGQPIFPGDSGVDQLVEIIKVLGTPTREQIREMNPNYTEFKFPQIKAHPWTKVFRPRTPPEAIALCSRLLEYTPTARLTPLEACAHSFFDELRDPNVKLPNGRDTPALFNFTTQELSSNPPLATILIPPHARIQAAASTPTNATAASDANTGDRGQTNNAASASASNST
From the text: as §1, §2

Another assay addresses JNK1 (Homo sapiens, UniProt P45983). The assay is described as above. In kind it is biochemical.
From the text: as §1, §2

A further assay deals with JNK2 (Homo sapiens, UniProt P45984). The description is as above. The format is biochemical.
Chain of JNK2 (P45984 whole entry, species assumed): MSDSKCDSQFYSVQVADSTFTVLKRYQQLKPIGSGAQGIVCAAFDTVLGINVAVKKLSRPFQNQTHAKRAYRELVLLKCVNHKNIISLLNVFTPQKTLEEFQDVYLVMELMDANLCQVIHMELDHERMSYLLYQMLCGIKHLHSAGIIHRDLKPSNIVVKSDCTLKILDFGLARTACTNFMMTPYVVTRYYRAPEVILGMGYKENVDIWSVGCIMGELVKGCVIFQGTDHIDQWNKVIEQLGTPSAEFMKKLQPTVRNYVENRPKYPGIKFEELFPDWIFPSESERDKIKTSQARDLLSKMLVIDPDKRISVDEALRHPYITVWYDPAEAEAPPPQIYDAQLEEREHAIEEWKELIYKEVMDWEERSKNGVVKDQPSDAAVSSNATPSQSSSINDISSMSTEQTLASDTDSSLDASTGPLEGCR
From the text: as §1, §2

For the next assay, the target named is MKK7 (Homo sapiens, UniProt O14733). Described as above. In kind it is biochemical.
Chain of MKK7 (O14733 whole entry, species assumed): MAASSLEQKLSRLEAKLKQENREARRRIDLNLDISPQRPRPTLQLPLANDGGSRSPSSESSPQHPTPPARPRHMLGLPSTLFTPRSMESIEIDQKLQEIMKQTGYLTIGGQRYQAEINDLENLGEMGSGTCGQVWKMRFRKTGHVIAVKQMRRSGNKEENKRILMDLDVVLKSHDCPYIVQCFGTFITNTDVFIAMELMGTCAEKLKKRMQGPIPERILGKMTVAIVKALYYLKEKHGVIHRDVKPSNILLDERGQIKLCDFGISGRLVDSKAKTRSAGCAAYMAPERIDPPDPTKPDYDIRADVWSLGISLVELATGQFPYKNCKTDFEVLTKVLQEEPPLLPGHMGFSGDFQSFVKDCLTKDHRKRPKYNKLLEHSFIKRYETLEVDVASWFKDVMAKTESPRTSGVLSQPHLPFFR
From the text: as §1, §2

Another assay deals with MKK6 (Homo sapiens, UniProt P52564). Described as above. The format is biochemical.
Chain of MKK6 (P52564 whole entry, species assumed): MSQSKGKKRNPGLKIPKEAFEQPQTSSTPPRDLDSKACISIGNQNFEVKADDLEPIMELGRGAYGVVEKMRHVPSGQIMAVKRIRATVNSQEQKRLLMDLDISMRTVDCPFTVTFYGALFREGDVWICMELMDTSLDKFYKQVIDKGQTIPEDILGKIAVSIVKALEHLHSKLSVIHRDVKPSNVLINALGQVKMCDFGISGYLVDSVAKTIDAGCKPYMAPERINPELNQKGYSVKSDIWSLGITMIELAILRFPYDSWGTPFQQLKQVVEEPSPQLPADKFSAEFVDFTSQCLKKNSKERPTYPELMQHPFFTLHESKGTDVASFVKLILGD
From the text: as §1, §2

A further assay addresses cdk1 (Homo sapiens, UniProt P06493). The settings on record: Lackey et al., 2000; cited from earlier work.

SMILES strings stand for the structures.

Chain of JNK1 (P45983 whole entry, species assumed): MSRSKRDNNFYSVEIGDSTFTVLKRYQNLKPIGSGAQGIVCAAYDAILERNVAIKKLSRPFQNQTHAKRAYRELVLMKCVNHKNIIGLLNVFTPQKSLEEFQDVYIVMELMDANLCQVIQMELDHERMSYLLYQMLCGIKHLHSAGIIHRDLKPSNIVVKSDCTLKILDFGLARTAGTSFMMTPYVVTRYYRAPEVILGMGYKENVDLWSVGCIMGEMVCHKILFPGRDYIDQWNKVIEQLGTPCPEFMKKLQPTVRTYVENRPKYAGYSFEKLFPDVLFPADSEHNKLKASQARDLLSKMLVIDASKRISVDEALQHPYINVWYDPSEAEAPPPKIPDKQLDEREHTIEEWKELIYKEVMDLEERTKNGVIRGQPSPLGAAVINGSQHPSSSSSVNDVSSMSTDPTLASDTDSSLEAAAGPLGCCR
Chain of cdk1 (P06493 whole entry, species assumed): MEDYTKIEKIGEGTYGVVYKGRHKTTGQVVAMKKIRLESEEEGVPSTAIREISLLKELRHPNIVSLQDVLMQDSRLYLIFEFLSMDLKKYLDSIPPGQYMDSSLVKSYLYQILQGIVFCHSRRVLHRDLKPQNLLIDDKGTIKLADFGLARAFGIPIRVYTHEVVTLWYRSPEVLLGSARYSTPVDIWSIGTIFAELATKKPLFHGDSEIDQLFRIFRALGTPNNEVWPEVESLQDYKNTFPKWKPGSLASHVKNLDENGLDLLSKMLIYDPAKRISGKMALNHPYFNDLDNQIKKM
Chain of cdk1 (P14635 whole entry partner, species assumed): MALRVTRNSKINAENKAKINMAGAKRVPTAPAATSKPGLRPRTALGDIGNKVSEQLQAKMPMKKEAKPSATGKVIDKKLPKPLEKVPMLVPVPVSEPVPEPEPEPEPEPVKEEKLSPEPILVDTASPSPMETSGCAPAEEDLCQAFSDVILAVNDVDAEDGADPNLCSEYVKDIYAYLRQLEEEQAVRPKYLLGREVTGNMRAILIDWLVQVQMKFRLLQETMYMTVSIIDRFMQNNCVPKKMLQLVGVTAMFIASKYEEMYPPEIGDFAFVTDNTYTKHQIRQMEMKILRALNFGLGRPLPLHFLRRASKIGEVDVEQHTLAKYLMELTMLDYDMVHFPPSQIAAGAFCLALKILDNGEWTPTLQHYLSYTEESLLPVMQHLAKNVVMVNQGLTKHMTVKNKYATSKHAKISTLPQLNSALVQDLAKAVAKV

Take `O=C1Nc2ccc(I)cc2C1=Cc1cc(Br)c(O)c(Br)c1` [GW5074, 5-Iodo-3-[(3,5-dibromo-4-hydroxyphenyl)methylene]-2-indolinone]: the “% ACTIVITY JNK3” value in the assay with JNK3 is recorded as 89 ± 9%. The activity at 1 µM is 81 ± 6% at GSK3β; 94 ± 3% at JNK1; 91 ± 4% at JNK2; 104 ± 8% on MKK7; 91 ± 4% at MKK6. For the same compound, the “effect on activity of cdk1” value at cdk1 is reported as “no effect”.
